Values of other authors in PMC9854340 (RSC Advances, 2023).

What was measured:
[1] = tested on: HL-60 human myeloblastic leukemia cells; settings: HL-60 cells, MTT; data taken from a previous report
[2] = folding square to folded form; CH3CN-d3; van't Hoff plot; previous report

Ascidiacyclamide [Peptide 1a]
ED50 [1]: 32.9 ± 0.9 µg/mL
ΔH° [2]: -2.28 kcal/mol
ΔS° [2]: -0.009417 kcal/mol
